Measurements reported in patent US9212204B2, “Treatment of rett syndrome using glycyl-L-2-methylprolyl-L-glutamic acid” (priority 2011, dated 2015).
Non-standard residues stand in square brackets, D forms with d. Residues, ends and D or L forms follow the SMILES beside them. αMeP = C[C@@]1(C(=O)O)CCCN1

What was measured:
[1] = system: GFAP-positive reactive astrocytes; assay: GFAP staining, astrocytosis in aged brains; type: in vivo, rat; details: i.p.; 18-month old rats; 3 d after injection; vs vehicle p<0.05, particularly 0.12 and 12 mg/kg
Protocol: To carry out these studies, tissues were fixed and embedded in paraffin and sections obtained using standard methods. Coronal sections (6 μm) containing the level of the hippocampus were cut and mounted on chrome-alum-coated slides for staining. The sections were deparaffinized in xylene, dehydrated in a series of ethanol and incubated in 0.1 M phosphate buffered saline (PBS).
Primary antibodies against glial fibrillary acidic protein (GFAP) and proliferating cell nuclear antigen (PCNA) were used to mark reactive glial cells and cells undergoing apoptosis and proliferation, respectively. […]
Control sections were processed in the same way except the primary antibody was omitted from the incubation solution. The number of PCNA positive cells was counted in the subventricular zone and the GFAP positive cells was scored in the cerebral cortex.
Using GFAP as a marker for reactive astrocytes, the number of GFAP-positive cells was counted in the CA4 sub-region of the hippocampus of aged rats treated with G-2MeP or vehicle. […]
We also evaluated effects of G-2-MePE on astrocytosis in the CA4 sub-region of the hippocampus in aged rats. […]
GFAP-positive cells were counted using a computerised program (Discovery 1). G-2-MePE was administered intra-peritoneally and the numbers of GFAP-positive cells were assessed 3d after the injection. […]

[2] = Pharmacokinetics after intravenous bolus injection; type: in vivo, rat
Protocol: Adult male Wistar rats weighing between 180 and 240 g were used to determine the pharmacokinetics of GPE and […]. To facilitate intravenous bolus injections and blood sampling, all rats were surgically implanted with an indwelling jugular venous cannula under halothane anesthesia three days before the experiment. Groups of six rats were given a single intravenous bolus injection of either 30 mg/kg GPE or 10 mg/kg […] dissolved in 0.1M succinate buffer (pH 6.5). […] The samples were centrifuged at 3000 g for 15 min at 4° C. and the plasma removed and stored at -80° C. until extraction and assay by either radioimmunoassay (“RIA”) or reverse phase HPLC. The RIA and HPLC methods used were conventional. […] The k and half-life (t1/2) were calculated from the slope of the linear regression line in the elimination phase of the semi-logarithmic plot of plasma concentration versus time as: Log. C=-kt/2.3+log C0. Results were expressed as mean±standard error.

[3] = system: layer 5 pyramidal neurons in motor cortex of P28 knockout mice; assay: Golgi staining, cortical spine density; type: in vivo, mouse; details: knockout with treatment
Protocol: Samples (<1 cm) from P28 mice are fixed in 10% formalin and 3% potassium bichromate for 24 hours. Tissue is then transferred into 2% silver nitrate for 2 days in the dark at room temperature. Sections from these samples are then cut at 50 μm thickness into distilled water. Sections corresponding to motor cortex are mounted onto slides, air dried for 10 minutes, and then dehydrated through sequential rinses of 95% alcohol, 100% alcohol, and xylene, and then sealed with a coverslip. Images re acquired at 10× (whole cell) and 100× (spine imaging) using a Zeiss Pascal 5 Exciter confocal microscope.
We use Golgi staining to label neurons sparsely and distinctly, and applied high-resolution confocal imaging to measure dendritic spine density and morphology in the labelled cells, restricting analysis to layer 5 pyramidal neurons in sections of motor cortex from critical period mice (P28).
While low-magnification imaging clearly delineates the extent of the dendrites of the pyramidal cells we use higher magnifications to count synaptic contacts and determine the morphological class of each spine. We classify spines as either large and bulbous (“mushroom”, M), short and stubby (“stubby”, S), short and thin (“thin”, T) or filopodia (F).

## C[C@@]1(C(=O)N[C@@H](CCC(=O)O)C(=O)O)CCCN1C(=O)CN [Example G-2-MePE, Glycyl-L-2-methylprolyl-L-glutamic acid] (H-Gly-[αMeP]-Glu-OH)
[1]
  number of reactive astrocytes (GFAP) in the CA4 region of the hippocampus: reduced
[2]; 10 mg/kg single i.v. bolus, rat
  first order rate constant: 0.033 ± 0.001 min⁻¹
[2]; G-2-MePE 10 mg/kg vs GPE 30 mg/kg i.v.
  maximal plasma concentration relative to GPE: about 4.8 times
[2]; i.v., rat
  t1/2 relative to GPE: over 4 times
[3]
  density of spines per unit branch: largely ameliorated
